Test results taken from patent US11040083B2, “Polypeptides comprising vinculin binding sites for the treatment of proliferation and/or adhesion related diseases” (PARIS SCIENCES ET LETTRES—QUARTIER LATIN, priority 2015, dated 2021).
No end group written: not given here.

Columns and labels:
talin H1-H4 [1] = target: T1, talin H1-H4 (Homo sapiens, UniProt Q9Y490); experiment: Isothermal titration calorimetry; type: binding; settings: for N (stoichiometry): ITC non-linear fit; for N (stoichiometry) / ΔG free enthalpy / ΔH enthalpy / −TΔS entropic contribution: 25° C.
Procedure: Vinculin, IpaA proteins and peptides were extensively dialyzed in binding buffer (25 mM Tris pH 7.4, 100 mM NaCl and 1 mM β-Mercaptoethanol). The final concentration of all proteins/peptides was measured using a BCA test (Thermo Scientific). Talin-IpaA binding was measured by microcalorimetry using an ITC200 calorimeter (MicroCal) at 25° C. 200 μL of 20-100 μM of talin H1-H4 protein was added to the cell and binding in the presence of different concentrations of IpaA VBS1, VBS2 or VBS3 peptides was measured. In other experiments, 200 μL of a 16 μM equimolar mix of A483:HVD1 was incubated for one hour at room temperature prior to addition to the cell. Binding to talin H1-H4 (100 μM) was measured. Typically, 20-40 injections of 2 μL of ligand were made with intervals of 320 seconds between each addition, with a reference power of 12 μcal/sec. Data were analyzed using the MicroCal software provided by manufacturer.

talin H1-H4 [2] = target: T1, talin H1-H4; experiment: Native-PAGE gel shift; type: binding
Procedure: Talin H1-H4 and IpaA peptides/proteins were incubated in binding buffer for 1 hour at 4° C. After incubation, the protein/peptides were mixed in a 2× Native loading buffer (62.5 mM Tris pH 6.8, Glycerol 25%) and separated by Tris-Glycine Native-PAGE electrophoresis. Gels were stained using standard colloidal Coomassie stain.
Talin H1-H4 and IpaA peptides/proteins at different molar ratios were incubated in binding buffer (25 mM Tris pH 7.4, 100 mM NaCl and 1 mM β-Mercaptoethanol) for 1 hour at 4° C. After incubation, the protein/peptides were mixed in a 2× Native loading buffer (62.5 mM Tris pH 6.8, Glycerol 25%) and separated by Tris-Glycine Native-PAGE electrophoresis. The Native PAGE electrophoresis gels were stained using standard colloidal Coomassie stain.

[3] = Size exclusion chromatography, hydrodynamic radius; type: physicochemical
Procedure: The purified proteins HVD1, A483, A524 and Talin H1-H4 were used at an equimolar concentration of 20 μM and incubated at 4° C. for one hour in binding buffer. The protein mixtures (200 μL) were injected in a FPLC chromatography system (FPLC Pharmacia) at 16° C. in a Superdex 75 HR 10/30 column (GE Healthcare) previously equilibrated with 10 volumes of binding buffer. The SEC system was calibrated with a Low Molecular Weight Gel Filtration Kit (ref. 17-0442-01, GE Healthcare) and the hydrodynamic radius (Angstroms) of the reference proteins (BSA, OVA, ChyA and RibA) correlated with the elution volume (Ve) using an Euler exponential equation: Hydrodynamic radius (Ang)=210.46 e^−0.189 Ve (mL), with a correlation squared coefficient of R^2=0.9973. Fractions corresponding to elution volume 8-10 mLs were recovered, and analyzed by SDS-PAGE using 15% polyacrylamide gels.

HeLa cells = experiment: Immunofluorescence of V5-tagged IpaA derivatives and talin; type: cell-based; settings: V5 epitope and talin staining
Excerpt: FIG. 8 is a set of photographs showing the interaction between IpaA VBS3 and talin (H1-H4). A, IpaA constructs used in this study. The VBSs are depicted as boxes in IpaA full length (IpaA-FL), with the residue number corresponding to the first residue of the corresponding VBS. The first and last IpaA residues are annotated for the IpaA truncated derivatives. V5: V5 epitope. B, HeLa cells were transfected with IpaA derivatives, fixed and processed for immunofluorescence staining of the V5 epitope and talin. Representative fluorescence images are shown, with a larger magnification of the inset boxed in the left panels. Scale bar=5 μm. C, Native PAGE analysis of IpaA VBSs and talin H1-H4 interaction. 1. Purified talin H1-H4 was incubated with the indicated IpaA VBS peptides and analyzed using 6-18% gradient native PAGE. The talin H1-H4: IpaA VBS molar ratio is indicated, with 1 corresponding to a final concentration of 25 μM. The migration of talin H1-H4 and of the talin H1-H4:IpaA VBS3 complex are indicated.

melanocytes = experiment: Time lapse cell migration; type: cell-based; settings: 6 movies per sample, preliminary

T1 sequence (Q9Y490 482-636): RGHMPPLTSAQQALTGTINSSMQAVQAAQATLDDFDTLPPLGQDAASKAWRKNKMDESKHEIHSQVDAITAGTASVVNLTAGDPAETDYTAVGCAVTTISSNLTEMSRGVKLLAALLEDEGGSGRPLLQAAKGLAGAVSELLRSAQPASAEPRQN

CC[C@H](C)[C@H](N)C(=O)N[C@@H](Cc1ccc(O)cc1)C(=O)N[C@@H](CCCCN)C(=O)N[C@@H](C)C(=O)N[C@@H](C)C(=O)N[C@@H](CCCCN)C(=O)N[C@@H](CC(=O)O)C(=O)N[C@H](C(=O)N[C@H](C(=O)N[C@H](C(=O)N[C@@H](CO)C(=O)N[C@@H](CC(C)C)C(=O)N[C@@H](CO)C(=O)N[C@@H](CCCCN)C(=O)N[C@H](C(=O)N[C@@H](CC(C)C)C(=O)N[C@@H](CCCCN)C(=O)N[C@@H](CC(N)=O)C(=O)N[C@H](C(=O)N[C@@H](CC(N)=O)C(=O)N[C@@H](CCCCN)C(=O)N[C@@H](CC(=O)O)C(=O)O)[C@@H](C)CC)C(C)C)[C@@H](C)O)[C@@H](C)O)C(C)C [IpaA VBS1]
N (stoichiometry) (talin H1-H4 [1]): 1.22 | ΔG free enthalpy (talin H1-H4 [1]; ITC): -6.575 kcal/mol | ΔH enthalpy (talin H1-H4 [1]; ITC): -4.104 kcal/mol | −TΔS entropic contribution (talin H1-H4 [1]; ITC): -2.471 kcal/mol | formation of a complex with talin H1-H4 (talin H1-H4 [2]): did not induce the formation

CC[C@H](C)[C@H](NC(=O)[C@H](CC(C)C)NC(=O)[C@H](CO)NC(=O)[C@@H](NC(=O)[C@H](CC(C)C)NC(=O)[C@H](CC(N)=O)NC(=O)[C@H](CO)NC(=O)[C@H](CC(C)C)NC(=O)[C@H](CO)NC(=O)[C@H](CC(N)=O)NC(=O)[C@@H](NC(=O)[C@@H](NC(=O)[C@H](CCCCN)NC(=O)[C@H](CCCCN)NC(=O)[C@H](CO)NC(=O)[C@H](C)NC(=O)[C@H](CCC(=O)O)NC(=O)[C@H](Cc1ccccc1)NC(=O)[C@@H](NC(=O)[C@@H](NC(=O)[C@H](CCC(=O)O)NC(=O)[C@H](CCCNC(=N)N)NC(=O)[C@@H](N)[C@@H](C)O)[C@@H](C)O)[C@@H](C)CC)C(C)C)[C@@H](C)O)[C@@H](C)CC)C(=O)NCC(=O)N[C@H](C(=O)O)[C@@H](C)O [IpaA VBS3]
N (stoichiometry) (talin H1-H4 [1]): 0.893 | ΔG free enthalpy (talin H1-H4 [1]; ITC): -9.219 kcal/mol | ΔH enthalpy (talin H1-H4 [1]; ITC): -6.393 kcal/mol | −TΔS entropic contribution (talin H1-H4 [1]; ITC): -2.826 kcal/mol | ΔG free enthalpy (talin H1-H4 [1]; ITC, listed as IpaA VBS3/TBS): -9.07 ± 0.103 kcal/mol | concentration at which the complex with talin H1-H4 / migration shift could be detected (talin H1-H4 [2]): 25 µM

IYEKAKEVSSALSKVLSKI (IpaA VBS2; listed as Shigella flexneri) [purified synthetic IpaA VBS peptide]
interaction with talin H1-H4 by ITC (talin H1-H4 [1]; ITC): did not show any interaction | formation of a complex with talin H1-H4 (talin H1-H4 [2]): did not induce the formation

YTKKELIECARRVSEKVSHVLAALQA [talin H46, reference compound]
Kd (talin H1-H4 [1]): 60 nM | ΔH enthalpy (talin H1-H4 [1]; ITC): -16.97 kcal/mol | −TΔS entropic contribution (talin H1-H4 [1]; ITC): +7200 cal/mol | formation of a complex with talin H1-H4 (talin H1-H4 [2]): formed a complex

B1: HVD1: vinculin derivative containing only amino acid residues 1 to 257 of HV (D1 domain) (protein, listed as Homo sapiens)
chain: MPVFHTRTIESILEPVAQQISHLVIMHEEGEVDGKAIPDLTAPVAAVQAAVSNLVRVGKETVQTTEDQILKRDMPPAFIKVENACTKLVQAAQMLQSDPYSVPARDYLIDGSRGILSGTSDLLLTFDEAEVRKIIRVCKGILEYLTVAEVVETMEDLVTYTKNLGPGMTKMAKMIDERQQELTHQEHRVMLVNSMNTVKELLPVLISAMKIFVTTKNSKNQGIEEALKNRNFTVEKMSAEINEIIRVLQLTSWDEDA
modifications: Vinculin domain D1 (HVD1)
Radiusg (hydrodynamic radius of a globular protein with the same MW) [3]: 24.36 Ang | Radiusm/Radiusg (RH/RG ratio) [3]: 1.16 | Radiusm (estimated hydrodynamic radius) ([3]; SEC Superdex 75, 20 μM equimolar): 28.25 Ang

B2: IpaA 7-422: V5-tagged IpaA truncated derivative in which the IpaA VBS3 was deleted (protein)
chain: TQAPTFLYKATSPSSTEYSELKSKISDIHSSQTSLKTPASVSEKENFATSFNQKCLDFLFSSSGKEDVLRSIYSNSMNAYAKSEILEFSNVLYSLVHQNGLNFENEKGLQKIVAQYSELIIKDKLSQDSAFGPWSAKNKKLHQLRQNIEHRLALLAQQHTSGEALSLGQKLLNTEVSSFIKNNILAELKLSNETVSSLKLDDLVDAQAKLAFDSLRNQRKNTIDSKGFGIGKLSRDLNTVAVFPELLRKVLNDILEDIKDSHPIQDGLPTPPEDMPDGGPTPGANEKTSQPVIHYHINNDNRTYDNRVFDNRVYDNSYHENPENDAQSPTSQTNDLLSRNGNSLLNPQRALVQKVTSVLPHSISDTVQTFANNSALEKVFNHTPDNSDGIGSDLLTTSSQERSANNSLSRGHRPLN
modifications: left off: small tags and cut ends
notes: V5-tagged IpaA truncated derivative in which the IpaA VBS3 was deleted
localization relative to talin (HeLa cells): did not co-localize with talin

B3: IpaA 7-522: V5-tagged IpaA truncated derivative (protein)
chain: TQAPTFLYKATSPSSTEYSELKSKISDIHSSQTSLKTPASVSEKENFATSFNQKCLDFLFSSSGKEDVLRSIYSNSMNAYAKSEILEFSNVLYSLVHQNGLNFENEKGLQKIVAQYSELIIKDKLSQDSAFGPWSAKNKKLHQLRQNIEHRLALLAQQHTSGEALSLGQKLLNTEVSSFIKNNILAELKLSNETVSSLKLDDLVDAQAKLAFDSLRNQRKNTIDSKGFGIGKLSRDLNTVAVFPELLRKVLNDILEDIKDSHPIQDGLPTPPEDMPDGGPTPGANEKTSQPVIHYHINNDNRTYDNRVFDNRVYDNSYHENPENDAQSPTSQTNDLLSRNGNSLLNPQRALVQKVTSVLPHSISDTVQTFANNSALEKVFNHTPDNSDGIGSDLLTTSSQERSANNSLSRGHRPLNIQNSSTTPPLHPEGVTSSNDNSSDTTKSSASLSHRVASQINKFNSNTDSKVLQTDFLSRNGDTYLTRETIFEASKKVTNSLSNLISLIGTKSGTQERELQ
modifications: left off: small tags and cut ends
notes: V5-tagged IpaA truncated derivative
localization relative to talin (HeLa cells): localized to focal adhesions and other talin-containing structures

B4: GFP-A524 (protein)
chain: KSKDITKSTTEHRINNKLKVTDANIRNYVTETNADTIDKNHAIYEKAKEVSSALSKVLSKIDDTSAELLTDDISDLKNNNDITAENNNIYKAAKDVTTSLSKVLKNINKD
modifications: left off: large carriers
effect on cell migration / motility (melanocytes): did not drastically alter the motility
